Measurements: patent US10351871B2, “Desaturases and methods of using them for synthesis of polyunsaturated fatty acids” (Washington State University, priority 1998, dated 2019)

Experiments:
[1] = target: T1, C. elegans Δ^6-desaturase (FAT-3) (Caenorhabditis elegans, UniProt Q23221); assay: C. elegans FAT-3 expressed in yeast (pMK195, ADH promoter), substrate desaturation; format: cell-based; conditions: yeast expressing fat-3 from pMK195
T1 construct: Codons for amino acid residues 38-67 of W08D2.4 were not present in the cDNA; expressed in transfected cells; host or cells: yeast (Saccharomyces cerevisiae), vector pMK195, constitutive ADH promoter
T1 sequence (Q23221 1-443): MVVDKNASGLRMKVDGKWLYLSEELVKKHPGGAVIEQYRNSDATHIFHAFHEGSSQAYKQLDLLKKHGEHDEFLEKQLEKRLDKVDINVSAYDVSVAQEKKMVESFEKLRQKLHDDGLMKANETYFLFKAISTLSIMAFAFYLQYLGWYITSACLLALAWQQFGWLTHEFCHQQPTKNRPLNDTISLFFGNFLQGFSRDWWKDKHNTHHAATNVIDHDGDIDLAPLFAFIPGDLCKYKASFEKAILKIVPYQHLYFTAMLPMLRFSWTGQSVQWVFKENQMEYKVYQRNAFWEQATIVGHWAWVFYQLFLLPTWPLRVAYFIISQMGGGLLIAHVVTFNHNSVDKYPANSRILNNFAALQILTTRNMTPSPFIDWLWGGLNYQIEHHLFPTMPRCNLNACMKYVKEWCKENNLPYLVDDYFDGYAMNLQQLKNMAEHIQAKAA
Source text: The fat-3 gene was expressed in the yeast expression vector pMK195 containing the constitutive ADH promoter.

[2] = target: T2, Euglena Δ^8-desaturase (EFD1) (Euglena gracilis, UniProt Q9SWQ9); format: cell-based; conditions: for desaturation of Δ^5 and Δ^6 substrates by EFD1 (in words): S. cerevisiae with pYES2-541, medium supplemented with the fatty acid; for desaturated share of the total incorporated 20-carbon fatty acid: S. cerevisiae with pYES2-541, 2% galactose, 0.2 mM fatty acid soap, overnight at 28° C.; for substrate preference over 20:1: EFD1 expressed in yeast
T2 construct: The resulting yeast expression construct containing the open reading frame under the control of a galactose-inducible promoter was designated pYES2-541; expressed in transfected cells; host or cells: Saccharomyces cerevisiae INVSc1, plasmid pYES2-541 (GAL1 promoter)
Source text: For E. gracilis, the cloned Δ^8 gene was transferred to the yeast expression vector pYES2 (Invitrogen, Carlsbad, Calif.) by standard cloning techniques (Ausubel, Current Protocols In Molecular Biology, 1988) using enzymes obtained from New England Biolabs, Beverly, Mass. The resulting yeast expression construct containing the open reading frame under the control of a galactose-inducible promoter was designated pYES2-541.
Saccharomyces cerevisiae strain INVSc1 (Invitrogen) was transformed with pYES2-541 and cultured using standard methods (Ausubel, Current Protocols In Molecular Biology, 1988). Liquid medium containing 2% galactose was supplemented with fatty acid soaps (NuCheck Prep, Elysian Minn.) at a final concentration of 0.2 mM. Tergitol (1%, NP40) was added to the yeast cultures to enhance fatty acid uptake (Stukey et al., J. Biol. Chem. 264:16537-16544, 1989), except for cultures containing 20:1, where 5% DMSO was substituted. Yeast were incubated overnight at 28° C., harvested by centrifugation, washed once with 1% Tergitol, once with 0.5% Tergitol, and finally once with distilled water.
(§1) Extraction of lipids and preparation of fatty acid methyl esters was carried out by standard methods (Miguel and Browse, J. Biol. Chem. 267:1502-1509, 1992). Gas chromatography of the methyl esters was conducted by established methods (Spychalla et al., Proc. Natl. Acad. Sci. USA 94:1142-1147, 1997). Fatty acid 4,4-Dimethyloxazoline (DMOX) derivatives of yeast lipid extracts were prepared by standard methods (Fay and Richli, J. Chromatogr. 541:89-98, 1991). GC-mass spectrometry was conducted on a Hewlett-Packard 6890 series GC-MS fitted with a 30 m×[…] HPSMS column, operating at an ionization voltage of 70 eV with a scan range of 50-550 Da. Fatty acids and their derivatives were identified where possible by comparison with authentic standards (NuCheck Prep).
To confirm the activity of the enzyme, the EFD1 cDNA was transferred from pJW541 to yeast expression vector pYES2 under the control of a galactose-inducible promoter. The resulting construct, pYES2-541, was introduced into S. cerevisiae. […] Accordingly, yeast cultures were supplemented with various fatty acid soaps, using a yeast strain containing the empty vector as control, and analyzed the fatty acids of the cultures by methyl-ester derivatization and gas chromatography.

[3] = target: T3, C. elegans Δ^5-desaturase (FAT-4) (Caenorhabditis elegans, UniProt G5EG11); assay: C. elegans FAT-4 (pYES2, fat-4) expressed in yeast fed fatty acid substrates, GC analysis; format: cell-based; conditions: for activity of FAT-4 on substrate (in words): yeast expressing FAT-4, substrate fed; for substrate converted to desaturation product: yeast expressing FAT-4, 2% galactose, 0.2 mM fatty acid, 16 hours, 18:1 is endogenous; for amount desaturated relative to conventional substrate 20:3Δ^8,11,14: yeast expressing the C. elegans Δ^5-desaturase gene
T3 construct: The resulting peptide length was 447 amino acids instead of the previously predicted 454 amino acids; expressed in transfected cells; host or cells: Saccharomyces cerevisiae INVSc1, plasmid pYFAT4 (pYES2, GAL1 promoter)
T3 sequence (G5EG11 1-447): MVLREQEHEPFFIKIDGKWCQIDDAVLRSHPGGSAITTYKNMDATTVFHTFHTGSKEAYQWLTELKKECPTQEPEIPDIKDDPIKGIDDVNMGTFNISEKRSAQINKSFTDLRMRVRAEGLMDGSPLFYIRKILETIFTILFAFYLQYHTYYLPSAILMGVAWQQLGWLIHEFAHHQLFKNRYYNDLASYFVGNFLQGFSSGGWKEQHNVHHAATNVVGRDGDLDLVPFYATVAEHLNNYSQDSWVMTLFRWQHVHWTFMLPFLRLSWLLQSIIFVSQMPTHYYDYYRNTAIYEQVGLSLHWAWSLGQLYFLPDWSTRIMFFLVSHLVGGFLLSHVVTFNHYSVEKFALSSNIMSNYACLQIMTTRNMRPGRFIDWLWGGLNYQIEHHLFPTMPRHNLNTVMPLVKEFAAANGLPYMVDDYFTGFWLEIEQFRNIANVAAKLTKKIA
Protocol: To express the C. elegans Δ^5-desaturase, the fat-4 cDNA amplification product (see Example 3) was digested with HindIII and BamH1 and ligated to the yeast expression vector pYES2 (Invitrogen) cut with HindIII and BamH1. The resulting plasmid was named pYFAT4.
For the C. elegans Δ^5 gene, the constructs were transformed into Saccharomyces cerevisiae strain INVSc1 using the S.c. EasyComp transformation kit (Invitrogen). For experiments with the FAT-4 peptide, transformed yeast were grown overnight in uracil-deficient media containing 2% galactose, 0.2 mM fatty acid, and 1% NP-40.
as §1
To determine the enzymatic activity of the FAT-4 desaturase-like protein, the protein was expressed in Saccharomyces cerevisiae supplemented with polyunsaturated fatty acid substrates that are not normally present in this yeast. The FAT-4 protein was expressed in the yeast expression vector pYES2 from the GAL1 promoter by growing the cells in the presence of galactose and various fatty acids. After 16 hours of growth, the cells were analyzed for total fatty acid composition by gas chromatography (GC).

Δ^5- and Δ^8-desaturases = assay: Yeast cell transformed with both Δ^5- and Δ^8-desaturase genes (pYFAT4 + pYX232-541) fed fatty acid substrates, GC; format: cell-based, Saccharomyces cerevisiae; conditions: for One added desaturation / Unconverted substrate: overnight culture at 28° C.; for Doubly desaturated product: products 20:5 (5, 8, 11, 14, 17), 20:4 (5, 8, 11, 14), 20:3 (5, 8, 11)
Source text: The cDNA portion of pJW541 (Wallis and Browse, Arch. Biochem. Biophys. 365:307-316, 1999) containing the Euglena Δ^8-desaturase was excised from that plasmid with the restriction enzymes EcoRI and SpeI. The purified DNA fragment representing the insert was ligated into the yeast expression vector pYX232 (R&D Systems, Inc.) that had been prepared by digestion with EcoRI and NheI, to give compatible sticky ends. (Plasmid pYX232 carries the marker conferring yeast prototrophy for tryptophan (TRP1 mutation), and uses the triose phosphate isomerase (TPI) promoter for constitutive expression of the inserted DNA.) The resulting plasmid, pYX232-541, was introduced into the Saccharomyces cerevisiae strain already harboring the Δ^5-desaturase (pYFAT4; Watts and Browse, Arch. Biochem. Biophys. 362:175-182, 1999) plasmid that confers yeast prototrophy for uracil using a lithium acetate transformation procedure (Invitrogen). Transformants were selected simultaneously for uracil and tryptophan prototrophy. Selected colonies arising after the transformation were inoculated into yeast minimal medium that also lacked both uracil and tryptophan.
For analysis of activity, separate cultures were supplemented with one of three fatty acid substrates provided as sodium salts as described (Wallis and Browse, Arch. Biochem. Biophys. 365:307-316, 1999). After overnight culture at 28° C., the cultures were harvested by centrifugation and washed. Fatty acid methyl esters were prepared using the standard methods described in Miguel and Browse J. Biol. Chem. 267:1502-1509, 1992.

Δ^5-desaturase = target: T4, Δ^5-desaturase (Caenorhabditis elegans, UniProt G5EG11); assay: Arabidopsis plants doubly transformed with both desaturases, seed fatty acid methyl ester analysis; format: in vivo; conditions: seed from plants doubly transformed with both desaturases
T4 construct: expressed in transfected cells; host or cells: Arabidopsis plants (seed) doubly transformed with Δ8 and Δ5 constructs
T4 sequence (G5EG11 1-447): T3 sequence (G5EG11 1-447)
Source text: For example, the expression of the Δ^5- and Δ^8-desaturases in a plant, such as Arabidopsis, can be achieved by constructing a plant transformation vector to introduce the cDNA of each desaturase into the plant. The vector can contain a tissue specific promoter so that the desaturase protein will be expressed during seed development. Examples of seed specific promoters include that for phaseolin (van der Geest and Hall, Plant Mol. Biol. 32:579-88, 1996) or the promoter for napin (Stalberg et al., Plant Mol. Biol. 23: 671-83, 1993). Other seed-specific promoters that can be used are those located on the genomic BAC clone T24A18 (LOCUS ATT24A18. (1999) 45980 bp Arabidopsis thaliana DNA chromosome 4, ACCESSION # AL035680, NID g4490701) of the Arabidopsis genome. […] Transformation of Arabidopsis is readily achieved using the Agrobacterium-mediated vacuum infiltration process (Katavic et al., Mol. Gen. Genet. 245:363-70, 1994) or the floral dip modification of it (Clough and Bent, Plant J. 16:735-43, 1998), although several other methods are also commonly used. […] Since the Δ^8 and Δ^5 constructs use different selectable markers the double transformants are readily isolated. […] The seeds of transformed plants are analyzed by isolation of fatty acid methyl esters followed by gas chromatography to determine the fatty acid composition.

[4] = target: T5, Δ^5-desaturase activity in microsomal extracts of mammalian liver (Rattus norvegicus, UniProt Q920R3); conditions: labeled substrate; cited from earlier work
T5 construct: the rates of desaturation in microsomal extracts of mammalian liver; host or cells: microsomal extracts of mammalian liver
T5 sequence (Q920R3 whole entry, stated change not applied): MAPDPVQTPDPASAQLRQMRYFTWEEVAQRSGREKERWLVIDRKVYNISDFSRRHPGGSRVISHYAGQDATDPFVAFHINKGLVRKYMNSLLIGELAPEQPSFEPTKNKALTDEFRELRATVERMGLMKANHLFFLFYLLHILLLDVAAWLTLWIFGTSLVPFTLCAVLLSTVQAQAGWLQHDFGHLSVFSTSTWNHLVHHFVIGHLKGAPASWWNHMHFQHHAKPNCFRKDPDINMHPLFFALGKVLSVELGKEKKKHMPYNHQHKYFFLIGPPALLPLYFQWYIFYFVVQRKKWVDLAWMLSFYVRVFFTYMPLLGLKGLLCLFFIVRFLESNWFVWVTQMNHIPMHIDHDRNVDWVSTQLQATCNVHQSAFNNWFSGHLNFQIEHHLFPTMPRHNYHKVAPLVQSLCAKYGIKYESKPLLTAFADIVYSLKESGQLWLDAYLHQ

T2 sequence (Q9SWQ9 other isoform, or with tags, fused parts or gaps with the stated changes): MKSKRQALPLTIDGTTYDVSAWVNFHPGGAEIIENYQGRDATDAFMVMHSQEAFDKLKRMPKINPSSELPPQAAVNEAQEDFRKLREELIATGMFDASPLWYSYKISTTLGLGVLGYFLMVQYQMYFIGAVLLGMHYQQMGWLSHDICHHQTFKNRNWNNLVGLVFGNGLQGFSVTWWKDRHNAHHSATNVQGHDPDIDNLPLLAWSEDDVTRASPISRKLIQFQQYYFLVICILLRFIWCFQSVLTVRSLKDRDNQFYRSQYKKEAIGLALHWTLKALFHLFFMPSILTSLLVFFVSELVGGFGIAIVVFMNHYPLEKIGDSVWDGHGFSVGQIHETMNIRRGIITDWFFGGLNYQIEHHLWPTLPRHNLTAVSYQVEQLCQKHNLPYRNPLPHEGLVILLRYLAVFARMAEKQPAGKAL

Row | Structure (SMILES) | activity of FAT-3 on substrate (in words) [1] | desaturated share of the total incorporated 20-carbon fatty acid [2] | activity of FAT-4 on substrate (in words) [3] | One added desaturation (Δ^5- and Δ^8-desaturases) | Unconverted substrate (Δ^5- and Δ^8-desaturases) | Doubly desaturated product (Δ^5- and Δ^8-desaturases) | substrate converted to desaturation product [3] | also measured
1 | CC/C=C\C/C=C\C/C=C\CCCCCCCC(=O)O [α-linolenic acid] | capable of desaturating | – | – | – | – | – | – | desaturation of Δ^5 and Δ^6 substrates by EFD1 (in words) [2]: no desaturation occurred
2 | CCCCCCCCC=CCCCCCCCCCC(=O)O [20:1Δ^11] | no activity | 32% | No novel peaks were detected | 18 mass percent of incorporated 20-carbon fatty acids | 72 mass percent of incorporated 20-carbon fatty acids | 11 mass percent of incorporated 20-carbon fatty acids | – | –
3 | CCCCC/C=C\C/C=C\C/C=C\CCCCCCC(=O)O [di-homo-γ-linolenic acid] | no activity | – | – | – | – | – | 55% | –
4 | CCCCC/C=C\C/C=C\C/C=C\CCCCC(=O)O [γ-linolenic acid] | – | – | no activity | – | – | – | – | –
5 | CCCCC/C=C\C/C=C\CCCCCCCC(=O)O [linoleic acid] | able to desaturate | – | no activity | – | – | – | – | desaturation of Δ^5 and Δ^6 substrates by EFD1 (in words) [2]: no desaturation occurred
6 | CCCCCCCCC=CCC=CCCCCCCC(=O)O [20:Δ^8,11] | – | – | – | – | – | – | – | conversion to 20:3Δ^5,8,11 in seed (Δ^5-desaturase): convert
7 | CCC=CCC=CCC=CCCCCCCCCCC(=O)O [20:3Δ^11,14,17] | no activity | 70% | – | 17 mass percent of incorporated 20-carbon fatty acids | 71 mass percent of incorporated 20-carbon fatty acids | 11 mass percent of incorporated 20-carbon fatty acids | 26% | substrate preference over 20:1 [2]: greater than two-fold preference; amount desaturated relative to conventional substrate 20:3Δ^8,11,14 [3]: less than half
8 | CCCCCC=CCC=CCCCCCCCCCC(=O)O [20:2Δ^11,14] | no activity | 73% | – | 18 mass percent of incorporated 20-carbon fatty acids | 70 mass percent of incorporated 20-carbon fatty acids | 13 mass percent of incorporated 20-carbon fatty acids | 27% | rate of conversion to 20:3Δ^5,11,14 relative to rate of conversion of labeled 20:3Δ^8,11,14 to 20:4Δ^5,8,11,14 [4]: 41%; substrate preference over 20:1 [2]: greater than two-fold preference; amount desaturated relative to conventional substrate 20:3Δ^8,11,14 [3]: less than half
